Test results published in patent US20240174695A1, “Spirocycle Containing Bicyclic Heteroaryl Compounds” (Protego Biopharma, Inc., priority 2022, published 2024).

Test system: Recombinant amyloidogenic full length light chain protein WIL-FL T46L
Assay: Differential Scanning Fluorimetry Assay (thermal shift assay); note: test concentration or dose not given here
Assay type: binding
Conditions: Thermal Shift Protein Stability Kit (Biotium), 96-well plates; protein and compounds incubated at RT for 30 min before adding the dye
Procedure: Differential Scanning Fluorimetry Assay
The stabilization effects the compounds have on the immunoglobulin light chain protein were quantitively measured using a thermal shift assay. Recombinant amyloidogenic full length light chain protein WIL-FL T46L was produced in E. coli, purified, and used in the assay. The Thermal Shift Protein Stability Kit from Biotium was used and the assay was done in 96-well plates following the manufacturer's instructions. The protein and compounds were incubated at RT for 30 min before adding the dye and subjected to the thermal shift assay. The thermal stability (Tm) of each sample was then determined using standard curve fitting methods and compared to vehicle. Data are expressed as temperature shift: [Tm]compound−[Tm]vehicle.
Results • 0-0.5° C.=* • >0.5-1° C.=** • >1-1.5° C.=*** • >1.5-2.5° C.=**** • >2.5° C.=*****

SMILES	DSF temperature shift: [Tm]compound−[Tm]vehicle
Cc1cc(OC[C@H](C)c2ccccc2)cn2nc(CCN3CC4(CCN(C(=O)C5(c6ccccn6)CC5)CC4)NC3=O)nc12 [Compound 90]	*** (>1-1.5° C.=***)
Cc1c(CCN2C(=O)NC3(CCN(c4nccn5ccnc45)CC3)C2=O)nc2cc(O[C@H](C)c3ccccc3)ccn12 [Compound 14, 8-(Imidazo[1,2-a]pyrazin-8-yl)-3-(2-(3-methyl-7-(1-phenylethoxy)imidazo[1,2-a]pyridin-2-yl)ethyl)-1,3,8-triazaspiro[4.5]decane-2,4-dione]	** (>0.5-1° C.=**)
Cc1cc(OCC2(c3ccccc3)CC2)cn2nc(C(O)CN3CC4(CCN(c5ccncc5)CC4)NC3=O)nc12 (centres unmarked) [Compound 46]	**** (>1.5-2.5° C.=****)
Cc1cc(OC[C@H](C)c2ccccc2)cn2nc(CCN3CC4(CCN(c5cc(C(F)(F)F)ccn5)CC4)NC3=O)nc12 [Compound 95]	*** (>1-1.5° C.=***)
Cc1cc(OCC2(c3ccccc3)CC2)cn2nc(C(O)CN3CC4(CCN(c5ccc(F)nc5)CC4)NC3=O)nc12 (centres unmarked) [Compound 42]	**** (>1.5-2.5° C.=****)
Cc1cc(OCC2(c3ccccc3)CC2)cn2nc(C(O)CN3CC4(CCN(c5cc(F)nc(F)c5)CC4)NC3=O)nc12 (centres unmarked) [Compound 39]	** (>0.5-1° C.=**)
Cc1cc(OC[C@H](C)c2ccccc2)cn2nc(C(O)CN3CC4(CCN(c5nccn6cnnc56)CC4)NC3=O)nc12 (some centres unmarked) [Compound 76]	***** (>2.5° C.=*****)
Cc1cc(OCC2(c3ccccc3)CC2)cn2nc(C(O)CN3CC4(CCN(C(=O)C5(c6ccccn6)CC5)CC4)NC3=O)nc12 (centres unmarked) [Compound 29]	***** (>2.5° C.=*****)
COc1cc(N2CCC3(CC2)CN(CC(O)c2nc4c(C)cc(OCC5(c6ccccc6)CC5)cn4n2)C(=O)N3)ccn1 (centres unmarked) [Compound 142]	***** (>2.5° C.=*****)
Cc1cc(N2CCC3(CC2)CN(CCc2nc4c(C)cc(OC[C@H](C)c5ccccc5)cn4n2)C(=O)N3)ccn1 [Compound 98]	***** (>2.5° C.=*****)
Cc1cc(OCC2(c3ccccc3)CC2)cn2nc(C(O)CN3CC4(CCN(c5ccnc(O)c5)CC4)NC3=O)nc12 (centres unmarked) [Compound 45]	***** (>2.5° C.=*****)
Cc1nonc1C(=O)N1CCC2(CC1)CN(CC(O)c1nc3c(C)cc(OCC4(c5ccccc5)CC4)cn3n1)C(=O)N2 (centres unmarked) [Compound 31]	**** (>1.5-2.5° C.=****)
C[C@@H](COc1cc(CO)c2nc(C(O)CN3CC4(CN(c5ccnc(O)c5)C4)OC3=O)nn2c1)c1ccccc1 (some centres unmarked) [Compound 145]	***** (>2.5° C.=*****)
Cc1cc(OC[C@H](C)c2ccccc2)cn2nc(C(O)CN3CC4(CCN(C(=O)Cn5nnnc5C)CC4)NC3=O)nc12 (some centres unmarked) [Compound 71]	**** (>1.5-2.5° C.=****)
Cc1cc(OC[C@H](C)c2ccccc2)cn2nc(CCN3CC4(CCN(C(=O)c5ncccn5)CC4)NC3=O)nc12 [Compound 91]	**** (>1.5-2.5° C.=****)
Cc1cc(OC[C@H](C)c2ccccc2)cn2nc(CCN3CC4(CCN(c5cc(F)nc(F)n5)CC4)NC3=O)nc12 [Compound 110]	**** (>1.5-2.5° C.=****)
Cc1cc(N2CCC(C)(c3ccccc3)C2)cn2nc(CCCN3C(=O)NC4(CCN(c5nccn6ccnc56)CC4)C3=O)nc12 (centres unmarked) [Compound 17]	***** (>2.5° C.=*****)
Cc1cc(N2CCC3(CC2)CN(CC(O)c2nc4c(C)cc(OCC5(c6ccccc6)CC5)cn4n2)C(=O)N3)ccn1 (centres unmarked) [Compound 18]	***** (>2.5° C.=*****)
Cc1cc(OC[C@H](C)c2ccccc2)cn2nc(C(=O)CN3CC4(CCN(c5nccn6cnnc56)CC4)CC3=O)nc12 [Compound 64]	**** (>1.5-2.5° C.=****)
Cc1cc(OC[C@H](C)c2ccccc2)cn2nc(C(O)CN3CC4(CCN(c5ccnc(O)c5)CC4)NC3=O)nc12 (some centres unmarked) [Compound 74]	**** (>1.5-2.5° C.=****)
Cc1ccc(N2CCC3(CC2)CN(CCc2nc4c(C)cc(OC[C@H](C)c5ccccc5)cn4n2)C(=O)N3)nn1 [Compound 121]	**** (>1.5-2.5° C.=****)
Cc1cc(OC[C@H](C)c2ccccc2)cn2nc(CCN3CC4(CN(c5cccc(C(=O)O)n5)C4)NC3=O)nc12 [Compound 126]	*** (>1-1.5° C.=***)

SMILES	DSF temperature shift: [Tm]compound−[Tm]vehicle
Cc1cc(OC[C@H](C)c2ccccc2)cn2nc(CCN3CC4(CCN(c5ccnc(O)c5)CC4)NC3=O)nc12 [Compound 105]	***** (>2.5° C.=*****)
Cc1cc(OC[C@H](C)c2ccccc2)cn2nc(C(O)CN3CC4(CCN(c5ccnc(O)c5)C4)NC3=O)nc12 (some centres unmarked) [Compound 73]	*** (>1-1.5° C.=***)
Cc1cc(OC[C@H](C)c2ccccc2)cn2nc(C(O)CN3CC4(CN(c5nccn6cnnc56)C4)NC3=O)nc12 (some centres unmarked) [Compound 88]	***** (>2.5° C.=*****)
Cc1cc(OCC2(c3ccccc3)CC2)cn2nc(C(O)CN3CC4(CCN(c5ccc(N)c(F)n5)CC4)NC3=O)nc12 (centres unmarked) [Compound 52]	***** (>2.5° C.=*****)
Cc1cc(OC[C@H](C)c2ccccc2)cn2nc(C(O)CN3CC4(CCN(C5CCNC(=O)C5)CC4)NC3=O)nc12 (some centres unmarked) [Compound 79]	**** (>1.5-2.5° C.=****)
Cc1cc(OCC2(c3ccccc3)CC2)cn2nc(C(O)CN3CC4(CCN(c5ccn(C)n5)CC4)NC3=O)nc12 (centres unmarked) [Compound 61]	**** (>1.5-2.5° C.=****)
Cc1cc(OCC(C)c2ccccc2)cn2nc(CCN3CC4(CCN(c5nccn6cnnc56)CC4)NC3=O)nc12 (centres unmarked) [Compound 13]	***** (>2.5° C.=*****)
Cc1cc(OC[C@H](C)c2ccccc2)cn2nc(CCN3CC4(CCN(c5ccnc(F)n5)CC4)NC3=O)nc12 [Compound 111]	**** (>1.5-2.5° C.=****)
Cc1cc(OCC2(c3ccccc3)CC2)cn2nc(C(O)CN3CC4(CCN(c5ccc(F)nn5)CC4)NC3=O)nc12 (centres unmarked) [Compound 43]	**** (>1.5-2.5° C.=****)
Cc1cc(N2CC[C@@](C)(c3ccccc3)C2)cn2nc(C(O)CN3CC4(CN(c5ccnc(O)c5)C4)NC3=O)nc12 (some centres unmarked) [Compound 23]	***** (>2.5° C.=*****)
Cc1cc(OC[C@H](C)c2ccccc2)cn2nc(C(O)CN3CC4(CN(c5cccc(O)n5)C4)NC3=O)nc12 (some centres unmarked) [Compound 83]	***** (>2.5° C.=*****)
Cc1cc(N2CCC(C)(c3ccccc3)C2)cn2nc(CCN3CC4(CCN(c5nccn6ccnc56)CC4)NC3=O)nc12 (centres unmarked) [Compound 1, 8-(Imidazo[1,2-a]pyrazin-8-yl)-3-(2-(8-methyl-6-(3-methyl-3-phenylpyrrolidin-1-yl)-[1,2,4]triazolo[1,5-a]pyridin-2-yl)ethyl)-1,3,8-triazaspiro[4.5]decan-2-one]	***** (>2.5° C.=*****)
Cc1cc(OC[C@@H](C)c2ccccc2)cn2nc(CCN3CC4(CCN(c5nccn6ccnc56)CC4)NC3=O)nc12 [Compound 11]	**** (>1.5-2.5° C.=****)
Cc1cc(OC[C@H](C)c2ccccc2)cn2nc(C(O)CN3CC4(CCN(c5cccc(O)n5)CC4)NC3=O)nc12 (some centres unmarked) [Compound 72]	**** (>1.5-2.5° C.=****)
Cc1cc(OC[C@H](C)c2ccccc2)cn2nc(CCN3CC4(CCN(c5ncc(F)cn5)CC4)NC3=O)nc12 [Compound 113]	***** (>2.5° C.=*****)
Cc1nsc(N2CCC3(CC2)CN(CC(O)c2nc4c(C)cc(OCC5(c6ccccc6)CC5)cn4n2)C(=O)N3)n1 (centres unmarked) [Compound 51]	***** (>2.5° C.=*****)
Cc1cc(OC[C@H](C)c2ccccc2)cn2nc(C(O)CN3CC4(CN(c5cccc(C(=O)O)n5)C4)NC3=O)nc12 (some centres unmarked) [Compound 86]	**** (>1.5-2.5° C.=****)
CNC(=O)c1cc(N2CCC3(CC2)CN(CC(O)c2nc4c(C)cc(OCC5(c6ccccc6)CC5)cn4n2)C(=O)N3)ccn1 (centres unmarked) [Compound 133]	***** (>2.5° C.=*****)
Cc1cc(OC[C@H](C)c2ccccc2)cn2nc(C(O)CN3CC4(CCN(c5cnccn5)CC4)NC3=O)nc12 (some centres unmarked) [Compound 78]	***** (>2.5° C.=*****)
Cc1cc(OCC2(c3ccccc3)CC2)cn2nc(C(O)CN3CC4(CCN(C(=O)Cn5cnnn5)CC4)NC3=O)nc12 (centres unmarked) [Compound 33]	**** (>1.5-2.5° C.=****)
Cc1cc(OC[C@H](C)c2ccccc2)cn2nc(CCN3CC4(CCN(c5nc(F)cc(F)n5)CC4)NC3=O)nc12 [Compound 109]	**** (>1.5-2.5° C.=****)
Cc1cc(OC[C@H](C)c2ccccc2)cn2nc(CCN3CC4(CCN(c5nccn6cnnc56)CC4)OC3=O)nc12 [Compound 116, (R)-8-([1,2,4]triazolo[4,3-a]pyrazin-8-yl)-3-(2-(8-methyl-6-(2-phenylpropoxy)-[1,2,4]triazolo[1,5-a]pyridin-2-yl)ethyl)-1-oxa-3,8-diazaspiro[4.5]decan-2-one]	**** (>1.5-2.5° C.=****)
